# Reference: US12479821B2 (MBD CO., LTD., priority 2019, dated 2025)
# Molecular target: T1, CYP4A (Homo sapiens, UniProt Q02928)
# T1 construct: host or cells: bactosome, i.e. bacterial membrane preparation (own knowledge of the term)
# T1 sequence (Q02928 5-519): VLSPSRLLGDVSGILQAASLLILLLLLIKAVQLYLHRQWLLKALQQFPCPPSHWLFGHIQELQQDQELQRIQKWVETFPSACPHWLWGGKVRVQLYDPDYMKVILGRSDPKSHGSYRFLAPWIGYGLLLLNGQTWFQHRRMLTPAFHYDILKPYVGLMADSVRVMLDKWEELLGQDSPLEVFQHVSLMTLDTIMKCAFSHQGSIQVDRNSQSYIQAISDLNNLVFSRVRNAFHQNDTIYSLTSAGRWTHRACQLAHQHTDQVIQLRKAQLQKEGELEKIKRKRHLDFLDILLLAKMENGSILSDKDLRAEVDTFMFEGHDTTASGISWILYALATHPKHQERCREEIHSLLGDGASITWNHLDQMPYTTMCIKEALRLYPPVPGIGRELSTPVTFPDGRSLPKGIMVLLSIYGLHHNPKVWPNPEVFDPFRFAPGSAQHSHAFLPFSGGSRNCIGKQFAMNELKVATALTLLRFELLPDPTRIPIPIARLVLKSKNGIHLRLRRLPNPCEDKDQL
# Test: CYP4A enzyme assay (Luciferin-ME luminescence, CYP4A bactosome)
# Type: biochemical
# Details: compound concentration 5 μM; 25%-50%; read-out: % Inhibition 25%-50%
# Protocol: A commercially available reagent was used for the reagent used in the experiment, and it was manufactured and used if necessary. The device used for activity measurement was EnVision of PerkinElmer or SpectraMax of MOLECULAR DEVICES.
# First, CYP4A bactosome and synthetic compound (5 μM) were mixed in assay buffer (100 mM KPO4, 0.1% BSA, 1 mM DTT) in a 384-well plate (white opaque ploystyrene nontreated flat-bottom well), and then reacted at room temperature for 15 minutes. After adding 5 mM Luciferin-ME and NADPH Regeneration system (10× sol.A, 20× sol.B in assay buffer, Cat. Number: V865B, Promega), leave it at room temperature for 30 minutes to allow the CYP4A reaction to occur sufficiently, by adding the Luciferin Detection reagent, the CYP4A reaction was finished, luminescence reaction was induced, and the reaction was carried out at room temperature for 15 minutes. The degree of inhibition of CYP4A activity was measured by comparing the luminescence values from each well with a microplate reader.
row,SMILES,inhibition at 5 µM
1,"Cc1cc(N2CCN(C(=O)C3CCCN(S(=O)(=O)c4ccccc4F)C3)CC2)c2ccccc2n1 (centres unmarked) [Formula 33, (1-(2-fluorophenylsulfonyl)piperidin-3-yl) (4-(2-methylquinolin-4-yl)piperazin-1-yl) methanone]",25 to 50%
2,"O=C(O)c1ccc(S(=O)(=O)N2CCCC(C(=O)N3CCN(c4ccnc5cc(Cl)ccc45)CC3)C2)cc1 (centres unmarked) [Formula 98, 4-((3-(1-(7-chloroquinolin-4-yl)piperazine-1-carbonyl)piperidin-1-yl)sulfonyl)benzoic acid]",25 to 50%
3,"Cc1cc(N2CCN(C(=O)C3CCCN(S(=O)(=O)c4c(F)c(F)c(F)c(F)c4F)C3)CC2)c2ccccc2n1 (centres unmarked) [Formula 30, (4-(2-methylquinolin-4-yl)piperazin-1-yl) (1-(perfluorophenylsulfonyl)piperidin-3-yl) methanone]",25 to 50%
4,"Cc1cc(N2CCN(C(=O)C3CCCN(S(=O)(=O)c4ccc(Br)cc4)C3)CC2)c2ccccc2n1 (centres unmarked) [Formula 40, (1-((4-bromophenyl)sulfonyl)piperidin-3-yl) (4-(2-methylquinolin-4-yl)piperazin-1-yl)methanone]",25 to 50%
5,"O=C(C1CCCN(S(=O)(=O)c2ccc(C(F)(F)F)cc2)C1)N1CCN(c2cc(C(F)(F)F)nc3ccccc23)CC1 (centres unmarked) [Formula 71, (1-(4-(trifluoromethyl)phenylsulfonyl)piperidin-3-yl) (4-(2-(trifluoromethyl)quinolin-4-yl)piperazin-1-yl) methanone]",25 to 50%
6,"O=C(C1CCCN(S(=O)(=O)c2ccc(F)cc2)C1)N1CCN(c2cc(C(F)(F)F)nc3ccccc23)CC1 (centres unmarked) [Formula 66, (1-(4-fluorophenylsulfonyl)piperidin-3-yl) (4-(2-(trifluoromethyl)quinolin-4-yl)piperazin-1-yl) methanone]",25 to 50%
7,"O=C([C@H]1CCCN(S(=O)(=O)c2ccc(O)cc2)C1)N1CCN(c2cc(C(F)(F)F)nc3ccccc23)CC1 [Formula 70, (S)-(1-(4-hydroxyphenylsulfonyl)piperidin-3-yl) (4-(2-(trifluoromethyl)quinolin-4-yl)piperazin-1-yl) methanone]",25 to 50%

# Same assay, conditions: compound concentration 5 μM; 75% or more; read-out: % Inhibition 75% or more
row,SMILES,inhibition at 5 µM
1,"CN(C)c1ccc(S(=O)(=O)N2CCC[C@H](C(=O)N3CCN(c4ccnc5ccccc45)CC3)C2)cc1 [Formula 80, (S)-(1-(4-(dimethylamino)phenylsulfonyl)piperidin-3-yl) (4-(quinolin-4-yl)piperazin-1-yl)methanone]",≥ 75%
2,"CC(=O)c1ccc(S(=O)(=O)N2CCCC(C(=O)N3CCN(c4ccnc5cc(F)ccc45)CC3)C2)cc1 (centres unmarked) [Formula 54, 1-(4-(3-(1-(7-fluoroquinolin-4-yl)piperazine-4-carbonyl)piperidin-1-ylsulfonyl)phenyl) ethanone]",≥ 75%
3,"O=C(C1CCCN(S(=O)(=O)c2cccc(-c3cncnc3)c2)C1)N1CCN(c2ccnc3cc(F)ccc23)CC1 (centres unmarked) [Formula 112, (4-(7-fluoroquinolin-4-yl)piperazin-1-yl) (1-(3-(pyrimidin-5-yl)phenylsulfonyl)piperidin-3-yl) methanone]",≥ 75%
4,"O=C(C1CCCN(S(=O)(=O)c2cccc(-c3cccnc3)c2)C1)N1CCN(c2ccnc3cc(F)ccc23)CC1 (centres unmarked) [Formula 110, (4-(7-fluoroquinolin-4-yl)piperazin-1-yl) (1-(3-(pyridin-3-yl)phenylsulfonyl)piperidin-3-yl) methanone]",≥ 75%
5,CN(C)c1ccc(S(=O)(=O)N2CCCC(C(=O)N3CCN(c4ccnc5cc(F)ccc45)CC3)C2)cc1 (centres unmarked),≥ 75%
6,"O=C(C1CCCN(S(=O)(=O)c2ccc(O)cc2)C1)N1CCN(c2ccnc3cc(Cl)ccc23)CC1 (centres unmarked) [Formula 5, (4-(7-chloroquinolin-4-yl)piperazin-1-yl) (1-((4-hydroxyphenyl)sulfonyl)piperidin-3-yl) methanone]",≥ 75%
7,"O=C(C1CCCN(S(=O)(=O)c2ccc(-c3ccncc3)cc2)C1)N1CCN(c2ccnc3ccccc23)CC1 (centres unmarked) [Formula 113, (1-(4-(pyridin-4-yl)phenylsulfonyl)piperidin-3-yl) (4-(quinolin-4-yl)piperazin-1-yl) methanone]",≥ 75%
8,COc1cccc(S(=O)(=O)N2CCCC(C(=O)N3CCN(c4ccnc5cc(Cl)ccc45)CC3)C2)c1 (centres unmarked) [Formula 14],≥ 75%
9,"COc1cccc(S(=O)(=O)N2CCCC(C(=O)N3CCN(c4ccnc5ccccc45)CC3)C2)c1 (centres unmarked) [Formula 86, (1-(3-methoxyphenylsulfonyl)piperidin-3-yl) (4-(quinolin-4-yl)piperazin-1-yl) methanone]",≥ 75%
10,"O=C(C1CCCN(S(=O)(=O)c2ccc(C(F)(F)F)cc2)C1)N1CCN(c2ccnc3cc(Cl)ccc23)CC1 (centres unmarked) [Formula 7, (4-(7-chloroquinolin-4-yl)piperazin-1-yl) (1-((4-(trifluoromethyl)phenyl)sulfonyl)piperidin-3-yl) methanone]",≥ 75%
11,"CC(=O)Nc1ccc(S(=O)(=O)N2CCCC(C(=O)N3CCN(c4ccnc5cc(F)ccc45)CC3)C2)cc1 (centres unmarked) [Formula 45, N-(4-(3-(1-(7-fluoroquinolin-4-yl)piperazine-4-carbonyl)piperidin-1-ylsulfonyl)phenyl) acetamide]",≥ 75%
12,"Cc1cc(N2CCN(C(=O)C3CCCN(S(=O)(=O)c4ccc(-c5cccnc5)cc4)C3)CC2)c2ccccc2n1 (centres unmarked) [Formula 105, (4-(2-methylquinolin-4-yl)piperazin-1-yl) (1-((4-(pyridin-3-yl)phenyl)sulfonyl)piperidin-3-yl) methanone]",0%
13,"CN(C)c1ccc(S(=O)(=O)N2CCC[C@@H](C(=O)N3CCN(c4ccnc5ccccc45)CC3)C2)cc1 [Formula 79, (R)-(1-(4-(dimethylamino)phenylsulfonyl)piperidin-3-yl) (4-(quinolin-4-yl)piperazin-1-yl)methanone]",≥ 75%
14,"O=C(C1CCCN(S(=O)(=O)c2ccc(F)cc2)C1)N1CCN(c2ccnc3cc(F)ccc23)CC1 (centres unmarked) [Formula 42, (1-((4-fluorophenyl)sulfonyl)piperidin-3-yl) (4-(7-fluoroquinolin-4-yl)piperazin-1-yl) methanone]",≥ 75%
15,"O=C(C1CCCN(S(=O)(=O)c2ccc(-c3cccnc3)cc2)C1)N1CCN(c2ccnc3ccccc23)CC1 (centres unmarked) [Formula 114, (1-(4-(pyridin-3-yl)phenylsulfonyl)piperidin-3-yl) (4-(quinolin-4-yl)piperazin-1-yl) methanone]",≥ 75%
16,"COc1ccc(S(=O)(=O)N2CCCC(C(=O)N3CCN(c4ccnc5cc(F)ccc45)CC3)C2)cc1 (centres unmarked) [Formula 53, (4-(7-fluoroquinolin-4-yl)piperazin-1-yl) (1-(4-methoxyphenylsulfonyl)piperidin-3-yl) methanone]",≥ 75%

# Same assay, conditions: compound concentration 5 μM; '50%-75%'; read-out: % Inhibition 50%-75%
row,SMILES,inhibition at 5 µM
1,"O=C([C@@H]1CCCN(S(=O)(=O)c2ccc(O)cc2)C1)N1CCN(c2cc(C(F)(F)F)nc3ccccc23)CC1 [Formula 69, (R)-(1-(4-hydroxyphenylsulfonyl)piperidin-3-yl) (4-(2-(trifluoromethyl)quinolin-4-yl)piperazin-1-yl) methanone]",50 to 75%
2,"O=C(C1CCCN(S(=O)(=O)c2ccc(Br)cc2)C1)N1CCN(c2ccnc3ccccc23)CC1 (centres unmarked) [Formula 85, (1-(4-bromophenylsulfonyl)piperidin-3-yl) (4-(quinolin-4-yl)piperazin-1-yl) methanone]",50 to 75%
3,"Cc1cc(N2CCN(C(=O)C3CCCN(S(=O)(=O)c4cccc(O)c4)C3)CC2)c2ccccc2n1 (centres unmarked) [Formula 93, (1-(3-hydroxyphenylsulfonyl)piperidin-3-yl) (4-(2-methylquinolin-4-yl)piperazin-1-yl) methanone]",50 to 75%
4,"COc1ccc2c(N3CCN(C(=O)C4CCCN(S(=O)(=O)c5ccc(O)cc5)C4)CC3)ccnc2c1 (centres unmarked) [Formula 91, (1-(4-hydroxyphenylsulfonyl)piperidin-3-yl) (4-(7-methoxyquinolin-4-yl)piperazin-1-yl)methanone]",50 to 75%
5,"Cc1cc(N2CCN(C(=O)C3CCCN(S(=O)(=O)c4ccc(-c5cncnc5)cc4)C3)CC2)c2ccccc2n1 (centres unmarked) [Formula 103, (4-(2-methylquinolin-4-yl)piperazin-1-yl) (1-((4-(pyrimidin-5-yl)phenyl)sulfonyl)piperidin-3-yl) methanone]",50 to 75%

# Same assay, conditions: compound concentration 5 μM; mark in column '25% or less'; read-out: % Inhibition 25% or less
row,SMILES,inhibition at 5 µM
1,"Cc1cc(N2CCN(C(=O)C3CCCN(S(=O)(=O)c4ccc(C(=O)O)cc4)C3)CC2)c2ccccc2n1 (centres unmarked) [Formula 100, 4-(3-(1-(2-methylquinolin-4-yl)piperazine-4-carbonyl)piperidin-1-ylsulfonyl)benzoic acid]",≤ 25%
